From patent US20220372040A1, “METTL3 MODULATORS” (Accent Therapeutics, Inc., priority 2020, published 2022) come the findings set out here.

The structures appear in SMILES notation. Where a name gives a salt, the structure may show the parent alone. Read-outs that look alike come from different tables or passages of the source.

What all share (type): biochemical
In one test the target is METTL1/WDR4 (Homo sapiens, UniProt Q9UBP6). Kind of test: METTL1 assay (3H-SAM flashplate scintillation). As to the method:
Assays were performed in a 25 μl-volume in 384-well V-bottom polypropylene microplates (Greiner Bio-One, cat. No. 781280) at ambient temperature. Optimized 1× assay buffer was 20 mM HEPES pH 7.5, 50 mM KCl, 250 μM MgCl2, 1 mM DTT, 0.01% Tween, 0.01% BSG, 0.004 U/μl RNAseOUT (cat. No. 10777019, ThermoFisher Scientific, Waltham, Mass.). For compound screening METTL1/WDR4 (final concentration, f.c.=6.25 nM) was added using a Multidrop Combi (ThermoFisher Scientific, Waltham, Mass.) and preincubated for 5 min. Reactions were started by adding 3′ biotinylated RNA ([…]-biotin) (f.c.=25 nM) and 3H-SAM (f.c.=60 nM) substrates. Reactions proceeded for 20 minutes and were quenched with excess non-radioactive SAM (f.c.=15 μM). The reactions were then transferred to streptavidin-coated flashplates and incubated for 2 hours at 25° C. Following two washing cycles with 0.1% Tween-20, the plates were sealed and read on a TopCount (PerkinElmer, Waltham, Mass.) plate-based scintillation counter. For determination of kinetic parameters, reaction times were optimized so that measurements were taken during the initial velocity phase of the reaction.

The target in another test is METTL3/METTL14 (Homo sapiens, UniProt Q86U44). Put plainly: METTL3-14 standard enzyme assay (3H-SAM flashplate scintillation). To be noted: METTL3/METTL14 2.5 nM, RNA 100 nM, 3H-SAM 100 nM, 30 min. How it is done:
METTL3-14 Standard Enzyme Assay
Assays were performed in a 25 μl-volume in 384-well V-bottom polypropylene microplates (Greiner Bio-One, cat. No. 781280) at ambient temperature. Optimized 1× assay buffer was 20 mM HEPES pH 7.5, 50 mM KCl, 250 μM MgCl2, 1 mM DTT, 0.01% Tween, 0.01% BSG, 0.004 U/μl RNAseOUT (cat. No. 10777019, ThermoFisher Scientific, Waltham, Mass.). For compound screening METTL3/METTL14 (final concentration, f.c.=2.5 nM) was added using a Multidrop Combi (ThermoFisher Scientific, Waltham, Mass.) and preincubated for 5 min. Reactions were started by adding 3′ biotinylated RNA (UCUGGACUAAA-biotin) (f.c.=100 nM) and 3H-SAM (f.c.=100 nM) substrates. Reactions proceeded for 30 minutes and were quenched with excess non-radioactive SAM (f.c.=15 μM). The reactions were then transferred to streptavidin-coated flashplates and incubated for 2 hours at 25° C. Following two washing cycles with 0.1% Tween-20, the plates were sealed and read on a TopCount (PerkinElmer, Waltham, Mass.) plate-based scintillation counter. For determination of kinetic parameters, reaction times were optimized so that measurements were taken during the initial velocity phase of the reaction.

For the next test, the target named is PRMT5-MEP50 (Homo sapiens, UniProt O14744). Kind of test: PRMT5 assay (3H-SAM flashplate scintillation). Conditions: PRMT5-MEP50 2.5 nM, histone H4 peptide 100 nM, 3H-SAM 250 nM, 60 min. How it is done:
Assays were performed in a 25 μl-volume in 384-well V-bottom polypropylene microplates (Greiner Bio-One, cat. No. 781280) at ambient temperature. Optimized 1× assay buffer was 20 mM Tris-HCl pH 8.0, 1 mM DTT, […]. For compound screening PRMT5-MEP50 (final concentration, f.c.=2.5 nM) was added using a Multidrop Combi (ThermoFisher Scientific, Waltham, Mass.) and preincubated for 5 min. Reactions were started by adding 3′ biotinylated histone H4 peptide acetylated on serine 1 (Ac-[…]-Biotin) (f.c.=100 nM) and 3H-SAM (f.c.=250 nM) substrates. Reactions proceeded for 60 minutes and were quenched with excess non-radioactive SAM (f.c.=15 μM). The reactions were then transferred to streptavidin-coated flashplates and incubated for 2 hours at 25° C. Following two washing cycles with 0.1% Tween-20, the plates were sealed and read on a TopCount (PerkinElmer, Waltham, Mass.) plate-based scintillation counter. For determination of kinetic parameters, reaction times were optimized so that measurements were taken during the initial velocity phase of the reaction.

[1] abbreviates: METTL1/WDR4 6.25 nM, RNA 25 nM, 3H-SAM 60 nM, 20 min, read-out: METTL1 IC50.

Sequence of PRMT5-MEP50 (O14744 whole entry): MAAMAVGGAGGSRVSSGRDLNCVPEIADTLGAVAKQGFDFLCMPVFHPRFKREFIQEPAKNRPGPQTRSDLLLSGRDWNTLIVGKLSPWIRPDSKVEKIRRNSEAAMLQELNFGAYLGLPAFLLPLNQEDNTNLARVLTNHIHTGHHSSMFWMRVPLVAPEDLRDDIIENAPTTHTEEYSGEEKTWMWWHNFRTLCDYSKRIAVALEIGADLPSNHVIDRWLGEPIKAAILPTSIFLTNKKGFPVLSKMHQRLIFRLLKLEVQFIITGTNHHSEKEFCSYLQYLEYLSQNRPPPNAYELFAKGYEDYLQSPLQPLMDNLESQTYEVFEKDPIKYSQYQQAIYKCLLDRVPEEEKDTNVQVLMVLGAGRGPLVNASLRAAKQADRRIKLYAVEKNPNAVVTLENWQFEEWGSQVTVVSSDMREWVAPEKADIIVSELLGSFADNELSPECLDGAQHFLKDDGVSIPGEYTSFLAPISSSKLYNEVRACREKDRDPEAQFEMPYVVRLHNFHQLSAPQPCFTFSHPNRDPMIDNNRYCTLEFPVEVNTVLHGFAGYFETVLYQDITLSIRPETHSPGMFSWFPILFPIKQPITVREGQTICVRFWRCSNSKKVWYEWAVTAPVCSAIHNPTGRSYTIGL
Sequence of PRMT5-MEP50 (Q9BQA1 whole entry partner): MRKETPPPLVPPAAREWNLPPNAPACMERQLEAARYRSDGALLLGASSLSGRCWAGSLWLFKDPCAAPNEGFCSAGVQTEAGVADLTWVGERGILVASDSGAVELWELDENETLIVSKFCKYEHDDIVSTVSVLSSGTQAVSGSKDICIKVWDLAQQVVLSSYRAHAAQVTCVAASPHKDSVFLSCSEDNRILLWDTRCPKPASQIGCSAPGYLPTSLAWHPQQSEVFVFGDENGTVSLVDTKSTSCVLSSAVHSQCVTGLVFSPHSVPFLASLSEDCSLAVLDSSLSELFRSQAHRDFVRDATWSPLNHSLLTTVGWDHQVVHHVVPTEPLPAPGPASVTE
Sequence of METTL3/METTL14 (Q86U44 whole entry, species assumed): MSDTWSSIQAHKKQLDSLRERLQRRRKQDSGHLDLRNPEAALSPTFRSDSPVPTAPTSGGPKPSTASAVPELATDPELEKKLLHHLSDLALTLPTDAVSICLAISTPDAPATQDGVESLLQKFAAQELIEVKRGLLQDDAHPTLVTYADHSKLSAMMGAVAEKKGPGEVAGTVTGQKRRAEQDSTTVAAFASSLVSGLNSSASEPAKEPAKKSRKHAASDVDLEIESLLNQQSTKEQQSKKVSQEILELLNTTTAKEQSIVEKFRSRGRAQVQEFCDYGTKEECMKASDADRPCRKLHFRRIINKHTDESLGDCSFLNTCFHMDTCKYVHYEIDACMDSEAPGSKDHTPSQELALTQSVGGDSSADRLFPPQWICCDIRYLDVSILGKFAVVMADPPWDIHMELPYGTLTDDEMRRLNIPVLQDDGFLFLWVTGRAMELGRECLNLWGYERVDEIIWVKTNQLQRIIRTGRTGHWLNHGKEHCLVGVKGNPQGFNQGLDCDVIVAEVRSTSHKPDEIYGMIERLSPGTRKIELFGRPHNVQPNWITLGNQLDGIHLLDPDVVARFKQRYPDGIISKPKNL
Sequence of METTL3/METTL14 (Q9HCE5 whole entry partner, species assumed): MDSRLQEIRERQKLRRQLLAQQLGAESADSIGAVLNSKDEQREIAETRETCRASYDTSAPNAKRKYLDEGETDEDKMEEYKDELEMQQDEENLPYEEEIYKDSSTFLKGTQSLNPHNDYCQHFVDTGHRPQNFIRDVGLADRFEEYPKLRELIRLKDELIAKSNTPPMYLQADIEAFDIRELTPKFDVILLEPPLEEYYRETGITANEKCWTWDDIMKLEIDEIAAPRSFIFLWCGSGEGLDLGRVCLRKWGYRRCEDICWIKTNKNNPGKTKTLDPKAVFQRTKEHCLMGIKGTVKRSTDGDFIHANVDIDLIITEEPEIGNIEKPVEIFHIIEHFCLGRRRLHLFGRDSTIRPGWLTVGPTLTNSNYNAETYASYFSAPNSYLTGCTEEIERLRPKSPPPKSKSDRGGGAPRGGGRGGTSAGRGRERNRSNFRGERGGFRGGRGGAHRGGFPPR
Sequence of METTL1/WDR4 (Q9UBP6 whole entry, species assumed): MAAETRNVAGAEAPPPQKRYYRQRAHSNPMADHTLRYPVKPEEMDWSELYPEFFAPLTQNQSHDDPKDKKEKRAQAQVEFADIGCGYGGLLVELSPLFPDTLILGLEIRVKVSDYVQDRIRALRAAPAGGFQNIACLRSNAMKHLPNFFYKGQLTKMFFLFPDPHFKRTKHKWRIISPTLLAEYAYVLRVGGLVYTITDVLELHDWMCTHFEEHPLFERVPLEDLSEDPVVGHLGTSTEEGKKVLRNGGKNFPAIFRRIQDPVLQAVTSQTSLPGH
Sequence of METTL1/WDR4 (P57081 whole entry partner, species assumed): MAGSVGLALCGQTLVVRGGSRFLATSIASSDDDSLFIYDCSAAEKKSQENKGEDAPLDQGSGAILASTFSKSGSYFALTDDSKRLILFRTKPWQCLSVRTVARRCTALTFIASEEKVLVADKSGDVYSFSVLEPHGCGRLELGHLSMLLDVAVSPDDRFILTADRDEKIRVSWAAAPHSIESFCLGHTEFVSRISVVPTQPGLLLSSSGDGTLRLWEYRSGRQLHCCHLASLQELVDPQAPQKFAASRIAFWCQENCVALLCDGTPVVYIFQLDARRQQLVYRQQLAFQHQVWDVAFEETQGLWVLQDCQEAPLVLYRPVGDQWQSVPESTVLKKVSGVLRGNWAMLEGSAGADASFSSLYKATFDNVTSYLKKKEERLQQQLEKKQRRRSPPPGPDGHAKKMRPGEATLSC

A word on the IC50: it is the concentration needed to halve the response being measured. As to `Nc1ncnc2c1c(Cl)cn2-c1nnc(COc2ccc3ccc(N4CCCC4)nc3c2)s1` [Compound I-38, 5-chloro-7-(5-(((2-(pyrrolidin-1-yl)quinolin-7-yl)oxy)methyl)-1,3,4-thiadiazol-2-yl)-7H-pyrrolo[2,3-d]pyrimidin-4-amine trifluoroacetate], the half-maximal inhibitory concentration (IC50) on METTL1/WDR4, at METTL3/METTL14 and on PRMT5-MEP50 was greater than 1000 nM throughout.
Take `CC(C)(C)c1cc(N)c2ccc(OCc3cncc(-n4ccc5c(N)ncnc54)c3)cc2n1` [Compound I-93]: the values for the IC50 at METTL1/WDR4 (setting [1]), on METTL3/METTL14 and on PRMT5-MEP50 were greater than 1000 nM, less than 10 nM and greater than 1000 nM, respectively.
As for `Nc1ncnc2c1ccn2-c1cncc(COc2ccc3c(=O)cc[nH]c3c2)c1` [Compound I-88], the half-maximal inhibitory concentration (IC50) on METTL1/WDR4 (setting [1]), on METTL3/METTL14 and against PRMT5-MEP50 was greater than 1000 nM in each case.
For the compound `CC(C)c1nc(N)c2ccc(OCc3cncc(-n4ccc5c(N)ncnc54)c3)cc2n1` [Compound I-91], the IC50 on METTL1/WDR4 (setting [1]) was greater than 1000 nM; against METTL3/METTL14, 10 to 100 nM; against PRMT5-MEP50, greater than 1000 nM.
For the compound `CNc1ccc2ccc(OCc3nc(-n4cc(Cl)c5c(N)ncnc54)cs3)cc2n1` [Compound I-37], the IC50 at METTL1/WDR4 (setting [1]) is greater than 1000 nM; against METTL3/METTL14, 10 to 100 nM; against PRMT5-MEP50 it was greater than 1000 nM.
For the compound `CNc1ccc2ccc(OCc3cc(-n4ccc5c(N)ncnc54)n[nH]3)cc2n1` [Compound I-2], the IC50 at METTL1/WDR4 and against PRMT5-MEP50 was greater than 1000 nM each time.
As to `CNc1ccc2ccc(OC(C)c3cncc(-n4ccc5c(N)ncnc54)c3)cc2n1` (stereo not drawn) [Compound I-4], the IC50 on METTL1/WDR4 (setting [1]) and against PRMT5-MEP50 was greater than 1000 nM throughout.
In the case of `C[S+]([O-])c1cn(-c2cncc(COc3ccc4ccc(N5CCC5)nc4c3)c2)c2ncnc(N)c12` (stereo not drawn) [Compound I-173], the results for the IC50 against METTL3/METTL14 and against PRMT5-MEP50 were 100 to 1000 nM and greater than 1000 nM, respectively.
In the same order, the values of `CC(C)c1cc(N)c2ccc(OCc3cncc(-c4c[nH]c5c(N)ncnc45)c3)cc2n1` [Compound I-101] are less than 10 nM and greater than 1000 nM.
Consider `Cn1ccc(-c2cn(-c3cncc(COc4ccc(C(=O)N5CCNCC5)c(N)c4)c3)c3ncnc(N)c23)n1` [Compound I-176], for which the IC50 against METTL3/METTL14 is 100 to 1000 nM; against PRMT5-MEP50, greater than 1000 nM.
The matching figures for `CC(=O)NC1CN(c2ccc3ccc(OCc4cncc(-n5cc(-c6ccn(C)n6)c6c(N)ncnc65)c4)cc3n2)C1` [Compound I-202]: 10 to 100 nM and greater than 1000 nM.
As to `CN(C)CCNC(=O)c1ccc(OCc2cncc(-n3ccc4c(N)ncnc43)c2)cc1N` [Compound I-216], the IC50 against METTL3/METTL14 and on PRMT5-MEP50 was greater than 1000 nM each time.
As to `Nc1ncnc2c(-c3cncc(COc4ccc5ccc(N6CCC6)nc5c4)c3)c[nH]c12` [Compound I-190], the IC50 against METTL3/METTL14 was less than 10 nM; against PRMT5-MEP50 it was greater than 1000 nM.
With `Cn1ccc(-c2cn(-c3cncc(COc4ccc5ccc(N6CC7(CC7)C6)nc5c4)c3)c3ncnc(N)c23)n1` [Compound I-203], the IC50 was 10 to 100 nM against METTL3/METTL14 and greater than 1000 nM against PRMT5-MEP50.
Take `Cn1ccc(-c2cn(-c3cncc(CS(=O)(=O)c4ccc5ccc(N6CCC6)nc5c4)c3)c3ncnc(N)c23)n1` [Compound I-220, 7-[5-({[2-(azetidin-1-yl)quinolin-7-yl]sulfonyl}methyl)pyridin-3-yl]-5-(1-methyl-1H-pyrazol-3-yl)-7H-pyrrolo[2,3-d]pyrimidin-4-amine]: the IC50 against METTL3/METTL14 and against PRMT5-MEP50 was greater than 1000 nM throughout.
Consider `Cn1ccc(-c2cn(-c3cncc(C[S+]([O-])c4ccc5ccc(N6CCC6)nc5c4)c3)c3ncnc(N)c23)n1` (stereo not drawn) [Compound I-221, 7-[5-({[2-(azetidin-1-yl)quinolin-7-yl]sulfinyl}methyl)pyridin-3-yl]-5-(1-methyl-1H-pyrazol-3-yl)-7H-pyrrolo[2,3-d]pyrimidin-4-amine], for which the values for the IC50 against METTL3/METTL14 and on PRMT5-MEP50 were greater than 1000 nM and 100 to 1000 nM, respectively.
In the same order, the values of `CCc1cc(=O)c2ccc(OCc3cncc(-n4cc(C5CCCC5)c5c(N)ncnc54)c3)cc2[nH]1` [Compound I-105] are 100 to 1000 nM and greater than 1000 nM.
For the compound `Cn1ccc(-c2cn(-c3cncc(COc4ccc5ccc(N6CCOCC6=O)nc5c4)c3)c3ncnc(N)c23)n1` [Compound I-214], the IC50 against METTL3/METTL14 and at PRMT5-MEP50 was greater than 1000 nM in each case.
Turning to `CNc1ccc2cc(F)c(OCc3cncc(-n4cc(C5CCCC5)c5c(N)ncnc54)c3)cc2n1` [Compound I-5], the IC50 at METTL1/WDR4 (setting [1]) and against PRMT5-MEP50 was greater than 1000 nM throughout.
Turning to `Cn1ccc(-c2cn(-c3cncc(COc4ccc5ccc(N6CCC6=O)nc5c4)c3)c3ncnc(N)c23)n1` [Compound I-188], the IC50 against METTL3/METTL14 and at PRMT5-MEP50 was greater than 1000 nM each time.
In the case of `Cn1ccc(-c2cn(-c3cncc(COc4ccc5ccc(C6CCOCC6)nc5c4)c3)c3ncnc(N)c23)n1` [Compound I-189], the IC50 is 100 to 1000 nM at METTL3/METTL14 and greater than 1000 nM at PRMT5-MEP50.
In the same order, the values of `Cn1ccc(-c2cn(-c3cncc(COc4ccc5ccc(N6CCC(F)(F)CC6)nc5c4)c3)c3ncnc(N)c23)n1` [Compound I-197] are 100 to 1000 nM and greater than 1000 nM.
Consider `CN(C)C(=O)c1ccc(OCc2cncc(-n3cc(-c4ccn(C)n4)c4c(N)ncnc43)c2)cc1N` [Compound I-177], for which the IC50 at METTL3/METTL14 and against PRMT5-MEP50 was greater than 1000 nM each time.
As to `Cc1cc(NCCN(C)CCCCc2ccccc2)c2ccc(OCc3cncc(-n4ccc5c(N)ncnc54)c3)cc2n1` [Compound I-102], the IC50 is 10 to 100 nM on METTL3/METTL14 and greater than 1000 nM against PRMT5-MEP50.
In the same order, the values of `Cc1cc(NCCN(C)CCCCCc2ccccc2)c2ccc(OCc3cncc(-n4ccc5c(N)ncnc54)c3)cc2n1` [Compound I-103] are 10 to 100 nM and greater than 1000 nM.
In the same order, the values of `Nc1cc(OCc2cncc(-n3ccc4c(N)ncnc43)c2)ccc1C(=O)N1CCNCC1` [Compound I-215] are greater than 1000 nM and greater than 1000 nM.
With `Cn1ccc(-c2cn(-c3cncc(COc4ccc(C(=O)N5CCOCC5)c(N)c4)c3)c3ncnc(N)c23)n1` [Compound I-178], the IC50 against METTL3/METTL14 and at PRMT5-MEP50 was greater than 1000 nM each time.
Regarding `CN(CC1CC1)C(=O)c1ccc(OCc2cncc(-n3cc(-c4ccn(C)n4)c4c(N)ncnc43)c2)cc1N` [Compound I-179], the IC50 on METTL3/METTL14 and against PRMT5-MEP50 was greater than 1000 nM in each case.
Consider `Cn1ccc(-c2cn(-c3cncc(CSc4ccc5ccc(N6CCC6)nc5c4)c3)c3ncnc(N)c23)n1` [Compound I-219, 7-[5-({[2-(azetidin-1-yl)quinolin-7-yl]sulfanyl}methyl)pyridin-3-yl]-5-(1-methyl-1H-pyrazol-3-yl)-7H-pyrrolo[2,3-d]pyrimidin-4-amine], for which the IC50 at METTL3/METTL14 is less than 10 nM; against PRMT5-MEP50, greater than 1000 nM.
Consider `CCc1cc(NCCOC)c2c(F)cc(OCc3cncc(-n4cc(C5CCCO5)c5c(N)ncnc54)n3)cc2n1` (stereo not drawn) [Compound I-172], for which the half-maximal inhibitory concentration (IC50) against METTL3/METTL14 and against PRMT5-MEP50 was greater than 1000 nM each time.
In the case of `Cn1ccc(-c2cn(-c3cncc(COc4ccc5ccc(N6CC7(CCC7)C6)nc5c4)c3)c3ncnc(N)c23)n1` [Compound I-194], the IC50 at METTL3/METTL14 was 100 to 1000 nM; against PRMT5-MEP50, greater than 1000 nM.
For `Cn1ccc(-c2cn(-c3cncc(COc4ccc(C(=O)NC5CCOCC5)c(N)c4)c3)c3ncnc(N)c23)n1` [Compound I-187], the IC50 is 100 to 1000 nM against METTL3/METTL14 and greater than 1000 nM on PRMT5-MEP50.
